The values below come from patent publication US20020042072A1, “Method for monitoring the effect of cancer therapies” (priority 2000, published 2002).

Like-named read-outs stand apart in the source and are kept apart here.

The subject of experiment [1] is telomerase activity in A431 xenograft. Nature of the experiment: Telomerase activity (TRAPeze ELISA) in A431 xenograft tumour material. Type of experiment: in vivo, nu/nu mice. On the procedure:
(§1) Human tumour cells KB (CCL-17) and A43 1 (CRL-1555) were obtained from ATCC and cultured in DMEM medium supplemented with 10% fetal calf serum, 10 mM HEPES, 50 μmol/l beta-mercaptoethanol and a standard complement of antibiotics.
(§2) To establish subcutaneous tumours in nu/nu mice (5-6 week old female animals, supplied by Harlan, The Netherlands), cells were trypsinised, washed and suspended in phosphate-buffered physiological solution+10% fetal calf serum at 10^7 cells/ml. 100 μl cell suspension containing 10^6 cells were then injected subcutaneously into the right flank of the mice (one site per mouse). When tumours were well established and had reached diameters of more than 5-9 mm, mice were randomly distributed between treatment and the vehicle control group (7-10 days after cell injection). Test compounds (1 and 5 mg/ml) were dissolved and administered intragastically by gavage needle. Administration was once daily oral dosing in a volume of 10 ml/kg body weight. Tumour diameters were measured three times weekly with a caliper. Volumes (in mm^3) were calculated according to the formula: tumour volume=length*diameter^2*π/6.
(§3) For measuring telomerase activity, the Oncor®, TRAPeze™ Elisa Telomerase Detection Kit was used. Tumour material surgically removed from mice was cleaned and frozen at −70° C. […]

For experiment [2], the system named is A431 xenograft. Kind of experiment: Tumour growth of subcutaneous A431 xenograft. The class given is in vivo, nu/nu mice. Conditions: for % reduction of tumour growth: A431 xenograft; for tumor growth in vivo: oral administration, nu/nu mice xenografted with A43 1 or KB tumor cells. On the procedure: as §1, §2
In experiment [3] the test system is telomerase activity in KB xenograft. Kind of experiment: Telomerase activity (TRAPeze ELISA) in KB xenograft tumour material. Type of experiment: in vivo, nu/nu mice. The conditions noted are these: 50 mg/kg once daily oral. On the procedure:
as §1, §2, §3

The subject of experiment [4] is KB xenograft. Nature of the experiment: Tumour growth of subcutaneous KB xenograft. Conditions: 50 mg/kg once daily oral. Type of experiment: in vivo, nu/nu mice. Here is the method: as §1, §2
Experiment [5] relates to NB-4. The conditions noted are these: NB-4, differentiation-sensitive clones; cited from earlier work.
Experiment [6] relates to NTERA-2. Conditions: NTERA-2, differentiation-sensitive clones; cited from earlier work.
The test system of experiment [7] is MCF-7. Conditions: cited from earlier work.
The subject of experiment [8] is MDA-MB23 1. Conditions: cited from earlier work.

For `CN1CCC(Nc2ncc3ncnc(Nc4ccc(F)c(Cl)c4)c3n2)CC1` [Inhibitor 1, 4-((3-chloro-4-fluoro-phenyl)amino)-6-(1-methyl-4-piperidinyl-amino)-pyrimido(5,4d)pyrimidine], the figures for the “% reduction of telomerase activity” value in experiment [1] (50 mg/kg once daily oral) and in experiment [3] were 100% and 6%, respectively. Also, the “% reduction of tumour growth” value in experiment [2] (50 mg/kg once daily oral) is on record as 79%; in experiment [4], 51%. Moreover, in experiment [2], the “tumor growth in vivo” value is listed as “inhibited tumor growth in vivo”.
Consider `CC1(N)CCN(c2ncc3ncnc(Nc4ccc(F)c(Cl)c4)c3n2)CC1` [Inhibitor 2, 4-((3-chloro-4-fluoro-phenyl)amino)-6-(4-amino-4-methyl-1-piperidinyl)-pyrimido(5,4d)pyrimidine], for which the “% reduction of telomerase activity” value in experiment [1] (10 mg/kg once daily oral) turned out to be 96%. Besides, the “% reduction of tumour growth” value in experiment [2] (10 mg/kg once daily oral) was 90%. Moreover, the “tumor growth in vivo” value in experiment [2] is “inhibited tumor growth in vivo”.
`CC1=C(/C=C/C(C)=C/C=C/C(C)=C/C(=O)O)C(C)(C)CCC1` [all-trans-retinoic acid]: the telomerase activity entry in experiment [5] and in experiment [6] was “decline in telomerase activity” in each case.
Regarding `CC(=O)NCCCCCCNC(C)=O` [hexamethylene bisacetamide], the telomerase activity result in experiment [5] and in experiment [6] was “decline in telomerase activity” in each case.
Consider `CC/C(=C(\c1ccccc1)c1ccc(OCCN(C)C)cc1)c1ccccc1` [tamoxifen], for which the telomerase activity result in experiment [7] (MCF-7, 10^−8M) is listed as “repressive effect”; in experiment [7] (MCF-7, higher (10^−7 and 10^−6M) or lower (10^−9M) concentrations), “no effect”; in experiment [8] (MDA-MB23 1, 10^−8M), “repressive effect”; in experiment [8] (MDA-MB23 1, higher (10^−7 and 10^−6M) or lower (10^−9M) concentrations), “no effect”.
